Assays:
KMT9 = target: T1, KMT9 (Homo sapiens, UniProt Q9Y5N5); assay: Microscale thermophoresis (MST) binding assay
T1 sequence (Q9Y5N5 1-214): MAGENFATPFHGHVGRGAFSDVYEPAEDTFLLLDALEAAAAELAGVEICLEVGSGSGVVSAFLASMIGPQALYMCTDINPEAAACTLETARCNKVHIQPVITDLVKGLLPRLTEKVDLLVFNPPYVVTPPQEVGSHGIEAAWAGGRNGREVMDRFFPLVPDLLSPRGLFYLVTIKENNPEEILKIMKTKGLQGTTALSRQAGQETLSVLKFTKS
T1 sequence (Q9UI30 1-125 partner): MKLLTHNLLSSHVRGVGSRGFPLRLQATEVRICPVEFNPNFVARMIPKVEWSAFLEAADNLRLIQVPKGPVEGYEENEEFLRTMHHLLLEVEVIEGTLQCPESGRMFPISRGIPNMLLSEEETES
Method: To determine the binding affinity of the compound and KMT9, microscale thermophoresis (MST) analysis was performed with a NanoTemper Monolith NT.115 instrument (NanoTemper Technologies GmbH). KMT9 was labeled with a RED-Tris-NTA labeling kit (NanoTemper Technologies GmbH) based on the manufacturer’s instructions. Buffer including 25 mM HEPES (pH 7.5), 100 mM NaCl, 1 mM DTT and 0.05% Tween was used for the reaction buffer. Varying concentrations of compounds were titrated against His-tag labeled KMT9 proteins (20 nM). Samples were loaded into standard Capillaries (NanoTemper Technologies GmbH) and MST measurements were performed using 40% MST power and 100% LED power. For each set of binding experiments, MST measurement was carried out with Binding Affinity module in MO. Control program under Nano-RED excitation. Data sets were processed with the MO.Affinity Analysis software (NanoTemper Technologies GmbH).

endogenous KMT9a = target: T2, endogenous KMT9a (Homo sapiens, UniProt Q9Y5N5); assay: CETSA in intact SW480 cells, KMT9; format: cell-based; conditions: 18 h, vs DMSO
T2 construct: increased thermal stability of endogenous KMT9 in SW480 cell lysates; endogenous in cells; host or cells: SW480
T2 sequence (Q9Y5N5 1-214): T1 sequence (Q9Y5N5 1-214)
T2 sequence (Q9UI30 1-125 partner): T1 sequence (Q9UI30 1-125 partner)
Method: (§1) For whole cell CETSA, the cells were incubated with 10/15 μM of compound 7b/8/8-N for 18 h. Then, cells were washed with cell culture medium, detached from the surface using trypsin, washed with PBS and the number of cells was determined. Cell concentration was adjusted to 3.6 × 10^7 cells/mL using in PBS with Complete (w/o EDTA, Roche) protease inhibitor. Then, cells were frozen in liquid nitrogen and thawed at 25 °C three times, before being divided in 16 aliquots. Each aliquot was heated to a defined temperature between 40 and 70 °C in a PCR cycler (16 well gradient, 55 °C ± 15). After 3 min incubation, aliquots were snap frozen in liquid nitrogen and thawed at 25 °C. Cell lysates were then centrifuged at 20,000 × g , 4 °C for 20 min. Supernatant were mixed with 5× loading buffer, heated to 70 °C for 5 min and analyzed by Western blotting essentially as previously described. For the CETSA performed with cell lysates, cells were directly harvested and lysed as described above. The lysates were then split and incubated either with DMSO or 10 μM compound 7b for 2 h. Then, lysates were aliquoted again into 16 samples each and treated as described for the whole cell CETSA.

KMT9a = target: T3, KMT9a (Homo sapiens, UniProt Q9Y5N5); assay: CETSA in HepG2 cells, KMT9; format: cell-based; parameters: prodrug compound 8 can target endogenous KMT9; endogenous in cells; host or cells: HepG2; conditions: vs DMSO
T3 sequence (Q9Y5N5 1-214): T1 sequence (Q9Y5N5 1-214)
T3 sequence (Q9UI30 1-125 partner): T1 sequence (Q9UI30 1-125 partner)
Method: as §1, with “The lysates were then split and incubated either with DMSO or 10 μM compound 7b for 2 h. Then, lysates were aliquoted again into 16 samples each and treated as described for the whole cell CETSA.” left out
Figure S5. […] Representative Western blots (D) and quantification (E) showing increased melting temperatures (ΔT m) of endogenous KMT9a upon treatment with compound 8 compared to DMSO. […] Representative Western blots (F) and quantification (G) showing no obvious shifting melting temperatures (ΔT m) of endogenous KMT5A upon treatment with compound 8 compared to DMSO. […]

KMT5A = target: T4, KMT5A (Homo sapiens, UniProt Q9NQR1); assay: CETSA in intact SW480 cells, KMT5A; format: cell-based; parameters: endogenous in cells; host or cells: SW480
T4 sequence (Q9NQR1 1-393): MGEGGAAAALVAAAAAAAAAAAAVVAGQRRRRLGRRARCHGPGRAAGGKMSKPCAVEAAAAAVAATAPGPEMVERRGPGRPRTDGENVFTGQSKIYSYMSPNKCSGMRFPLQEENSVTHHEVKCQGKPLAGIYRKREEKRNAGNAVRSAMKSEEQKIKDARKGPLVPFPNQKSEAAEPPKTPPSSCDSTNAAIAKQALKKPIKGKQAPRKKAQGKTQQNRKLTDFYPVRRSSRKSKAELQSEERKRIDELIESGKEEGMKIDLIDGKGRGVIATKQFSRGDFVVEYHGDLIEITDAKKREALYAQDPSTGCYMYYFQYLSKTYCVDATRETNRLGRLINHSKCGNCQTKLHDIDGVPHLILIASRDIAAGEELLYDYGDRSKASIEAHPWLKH
Method: as §1, with “The lysates were then split and incubated either with DMSO or 10 μM compound 7b for 2 h. Then, lysates were aliquoted again into 16 samples each and treated as described for the whole cell CETSA.” left out
Figure S4. […] Representative Western blots (A) and quantification (B) showing no obvious shifting melting temperatures (ΔT m) of endogenous KMT5A upon treatment with compound 7b compared to DMSO. […]
Representative Western blots (C) and quantification (D) showing no shifting melting temperatures (ΔT m) of endogenous KMT5A upon treatment with compound 8 compared to DMSO. […]

Decrease of binding affinity compared to compound 7b (KMT9; Kd ratio vs compound 7b): more than 10,000 fold
Kd (KMT9; MST, binding to KMT9, read-out: Kd): > 400 µM
ΔTm at 10 µM (endogenous KMT9a): 5 °C
ΔTm at 15 µM (KMT9a): 8 °C
ΔTm at 10 µM (KMT5A): -0.6 °C
Structure (SMILES): CCOC(=O)[C@@H](N)CCN(CCCNCCc1ccc(Oc2ccc(Cl)cc2)c(F)c1)C[C@H]1C[C@@H](n2ccc3c(NC)ncnc32)[C@H](O)[C@@H]1O [compound 8, Ethyl (S)-2-amino-4-((3-((4-(4-chlorophenoxy)-3-fluorophenethyl)amino)propyl) (((1R,2R,3S,4R)-2,3-dihydroxy-4-(4-(methylamino)-7H-pyrrolo[2,3-d]pyrimidin-7-yl)cyclopentyl)methyl)amino)butanoate]
